The source of these data is ChEMBL document CHEMBL5131375, “Recent Developments in the Use of Kinase Inhibitors for Management of Viral Infections” (J Med Chem, 2022).

The subject of series [1] is Murine coronavirus. Briefly: Antiviral activity against mCoV-68 infected in african green monkey Vero cells incubated for 7 days by counting number of plaque by crystal violet staining method. In kind it is functional, organism-based. Conditions: Murine coronavirus, 68, Vero, 168 h.
In series [2] the test system is Murine coronavirus. Briefly: Antiviral activity against MHV. In kind it is functional, organism-based.
The nature of series [3]: Cytotoxicity against mouse NIH3T3 cells. In kind it is toxicity, cell-based.
In series [4] the target is Cyclin-dependent kinase 2 (Homo sapiens, UniProt P24941).
Series [5] is described as follows: Cytotoxicity against human astrocyte cells. In kind it is toxicity, cell-based.
Series [6] deals with Zika virus. Briefly: microbe, parasite or virus in culture.
In a further series the target is Aurora kinase B (Homo sapiens, UniProt Q96GD4). Briefly: Inhibition of aurora B kinase (unknown origin).
Aurora kinase B, sequence (Q96GD4 whole entry): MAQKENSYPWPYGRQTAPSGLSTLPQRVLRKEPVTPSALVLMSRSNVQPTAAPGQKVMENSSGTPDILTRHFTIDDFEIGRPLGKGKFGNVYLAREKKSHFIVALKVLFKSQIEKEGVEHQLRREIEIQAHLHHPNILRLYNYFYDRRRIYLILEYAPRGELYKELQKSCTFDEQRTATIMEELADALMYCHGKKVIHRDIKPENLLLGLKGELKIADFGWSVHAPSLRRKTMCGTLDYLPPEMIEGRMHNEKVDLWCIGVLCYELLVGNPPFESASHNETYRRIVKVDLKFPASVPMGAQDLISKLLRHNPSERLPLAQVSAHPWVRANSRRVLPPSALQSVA
Series [7] in a line: Cytotoxicity against human JEG-3 cells. It is filed as toxicity, cell-based.
The nature of series [8]: in vitro. Conditions: human, ccrf-cem.
Series [9] in a line: in vitro. Particulars: human, jurkat.
Series [10] is described as follows: in vitro. Conditions: human, u-937.
Series [11] concerns Zika virus. Briefly: Antiviral activity against ZIKV-PRVABC59 infected in human Huh-7 cells measured after 24 hrs. Particulars: PRVABC59, Huh-7, 24 h. It is filed as functional, organism-based.
Series [12] has as its system Zika virus. Briefly: Antiviral activity against ZIKV-PRVABC59 infected in Neuronal cell line measured after 24 hrs. In kind it is functional, organism-based.
In the next series the test system is Lassa virus. Briefly: microbe, parasite or virus in culture. Conditions: Mammarenavirus lassaense, A549. It is filed as functional, organism-based.
Series [13] deals with Nipah virus. Put plainly: microbe, parasite or virus in culture. It is filed as functional, organism-based, HEK293T. Particulars: Henipavirus nipahense, HEK-293T.
Series [14] relates to Ebolavirus. Briefly: microbe, parasite or virus in culture. It is filed as functional, organism-based. Particulars: Orthoebolavirus, Huh-7.
Series [15] relates to Marburgvirus. Briefly: microbe, parasite or virus in culture. It is filed as functional, organism-based. Particulars: Orthomarburgvirus, Huh-7.
The test system of series [16] is Ebolavirus. Briefly: microbe, parasite or virus in culture. In kind it is functional, organism-based. Conditions: Orthoebolavirus.
Series [17] deals with Marburgvirus. Briefly: microbe, parasite or virus in culture. It is filed as functional, organism-based. Conditions: Orthomarburgvirus.
In series [18] the test system is Nipah virus. Put plainly: microbe, parasite or virus in culture. In kind it is functional, organism-based. Particulars: Henipavirus nipahense.
Series [19] can be described thus: in vitro. Particulars: human, Huh-7 cells.
For series [20], the system named is Human alphaherpesvirus 1. Put plainly: microbe, parasite or virus in culture. In kind it is functional, organism-based.
Series [21] concerns the target Inhibitor of nuclear factor kappa-B kinase subunit epsilon (Homo sapiens, UniProt Q14164). Put plainly: Inhibition of IKK epsilon (unknown origin).
The next series concerns Human alphaherpesvirus 2. Briefly: Antiviral activity against HSV-2 assessed as reduction in virus titre at 10 uM relative to control. In kind it is functional. More on the design: scale not given: the % may be the effect or the level left.
Series [22] in a line: Cytotoxicity against human HCE cells. In kind it is toxicity, cell-based.
Series [23] in a line: Cytotoxicity against HEK cells. In kind it is toxicity, cell-based. Conditions: human.
Series [24] can be described thus: in vitro. Conditions: human, HeLa cells.
Series [25] relates to Pichinde virus. Put plainly: Antiviral activity against PICV infected in african green monkey Vero cells assessed as reduction in viral titre at 100 uM relative to control. In kind it is functional. More on the design: scale not given: the % may be the effect or the level left.
The test system of series [26] is Human alphaherpesvirus 1. Briefly: Antiviral activity against HSV-1 infected in african green monkey Vero cells assessed as inhibition of cytopathic effect at 50 uM. It is filed as functional. Also noted: scale not given: the % may be the effect or the level left.
Another series has as its system Hepatitis B virus. Briefly: microbe, parasite or virus in culture. It is filed as functional, organism-based. Particulars: Hepatitis B virus.
The subject of series [27] is Pichinde virus. Put plainly: Antiviral activity against PICV assessed as reduction of viral growth at 50 uM. In kind it is functional. Also noted: scale not given: the % may be the effect or the level left.
In series [28] the test system is Human alphaherpesvirus 1. Briefly: Antiviral activity against HSV-1 assessed as reduction of viral growth at 50 uM. Also noted: scale not given: the % may be the effect or the level left. In kind it is functional.
The test system of series [29] is Human immunodeficiency virus 1. Put plainly: Antiviral activity against HIV-1 assessed as reduction of viral growth at 50 uM. In kind it is functional. More on the design: scale not given: the % may be the effect or the level left.
The nature of series [30]: in vitro. Particulars: chlorocebus sabaeus, Vero cells.
The nature of series [31]: Cytotoxicity against human MCF7 cells. It is filed as toxicity, cell-based.
The target of series [32] is Protein kinase C beta type (Homo sapiens, UniProt P05771). Put plainly: Inhibition of PKCbeta2 (unknown origin).
Protein kinase C beta type, sequence (P05771 whole entry): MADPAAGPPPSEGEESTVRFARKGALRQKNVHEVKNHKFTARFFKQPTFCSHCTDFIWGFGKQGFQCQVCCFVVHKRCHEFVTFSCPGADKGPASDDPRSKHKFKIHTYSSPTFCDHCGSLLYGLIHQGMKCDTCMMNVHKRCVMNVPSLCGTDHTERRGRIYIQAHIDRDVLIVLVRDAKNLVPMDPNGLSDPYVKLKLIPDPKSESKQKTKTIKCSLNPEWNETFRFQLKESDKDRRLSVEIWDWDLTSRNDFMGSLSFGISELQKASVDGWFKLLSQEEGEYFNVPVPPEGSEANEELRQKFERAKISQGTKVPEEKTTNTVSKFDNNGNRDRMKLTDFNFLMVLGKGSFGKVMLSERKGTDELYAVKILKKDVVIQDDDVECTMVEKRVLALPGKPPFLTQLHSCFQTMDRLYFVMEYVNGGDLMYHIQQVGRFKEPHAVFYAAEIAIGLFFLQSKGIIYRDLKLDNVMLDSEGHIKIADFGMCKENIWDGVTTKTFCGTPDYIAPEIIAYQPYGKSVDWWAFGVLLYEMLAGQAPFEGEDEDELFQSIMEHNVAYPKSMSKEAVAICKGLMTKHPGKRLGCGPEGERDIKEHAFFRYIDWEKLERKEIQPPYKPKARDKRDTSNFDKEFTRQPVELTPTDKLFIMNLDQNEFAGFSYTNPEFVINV
In series [33] the test system is Influenza A virus. Put plainly: Antiviral activity against influenza A virus assessed as log reduction of virus at 5 to 10 uM. It is filed as functional. Particulars: dose 5-10 µM.
For the next series, the system named is Influenza B virus. Briefly: Antiviral activity against influenza B virus assessed as log reduction of virus at 5 to 10 uM. In kind it is functional. Conditions: dose 5-10 µM.
A short description of series [34]: Cytotoxicity against human HL-60 cells. In kind it is toxicity, cell-based.
Another series deals with Human coronavirus 229E. Briefly: Antiviral activity against HCoV-229E assessed as reduction of viral RNA level at 4 uM relative control. In kind it is functional. More on the design: scale not given: the % may be the effect or the level left.
A short description of series [35]: in vitro. Particulars: human, l132.
The subject of series [36] is Influenza A virus. Put plainly: Antiviral activity against influenza A virus infected in human A549 cells assessed as inhibition of viral replication at 4 uM relative to control. It is filed as functional. Also noted: scale not given: the % may be the effect or the level left.
The test system of another series is Lyssavirus rabies. Put plainly: microbe, parasite or virus in culture. In kind it is functional, organism-based.
The test system of series [37] is Transmissible gastroenteritis virus. Put plainly: Antiviral activity against TGEV assessed as reduction in virus titre at 4 uM. It is filed as functional.
Series [38] in a line: Inhibition of PDGF (unknown origin). More on the design: species or system Homo sapiens.
The test system of series [39] is Transmissible gastroenteritis virus. Briefly: Antiviral activity against TGEV assessed as log reduction in virus progeny at 4 uM. In kind it is functional.
Series [40] has as its system Murine coronavirus. Put plainly: Antiviral activity against MHV assessed as log reduction in virus progeny at 4 uM. It is filed as functional.
Series [41] relates to Porcine epidemic diarrhea virus. Put plainly: Antiviral activity against PEDV assessed as log reduction in virus progeny at 4 uM. In kind it is functional.
Series [42] has as its system Feline infectious peritonitis virus. Put plainly: Antiviral activity against FIPV assessed as log reduction in virus progeny at 4 uM. It is filed as functional.
A short description of series [43]: Cytotoxicity against pig PK-15 cells. It is filed as toxicity, cell-based, Sus scrofa.
Series [44] can be described thus: Cytotoxicity against golden hamster BSR cells. In kind it is toxicity, cell-based, Mesocricetus auratus.

SMILES strings stand for the structures.

Inhibitor of nuclear factor kappa-B kinase subunit epsilon, sequence (Q14164 whole entry): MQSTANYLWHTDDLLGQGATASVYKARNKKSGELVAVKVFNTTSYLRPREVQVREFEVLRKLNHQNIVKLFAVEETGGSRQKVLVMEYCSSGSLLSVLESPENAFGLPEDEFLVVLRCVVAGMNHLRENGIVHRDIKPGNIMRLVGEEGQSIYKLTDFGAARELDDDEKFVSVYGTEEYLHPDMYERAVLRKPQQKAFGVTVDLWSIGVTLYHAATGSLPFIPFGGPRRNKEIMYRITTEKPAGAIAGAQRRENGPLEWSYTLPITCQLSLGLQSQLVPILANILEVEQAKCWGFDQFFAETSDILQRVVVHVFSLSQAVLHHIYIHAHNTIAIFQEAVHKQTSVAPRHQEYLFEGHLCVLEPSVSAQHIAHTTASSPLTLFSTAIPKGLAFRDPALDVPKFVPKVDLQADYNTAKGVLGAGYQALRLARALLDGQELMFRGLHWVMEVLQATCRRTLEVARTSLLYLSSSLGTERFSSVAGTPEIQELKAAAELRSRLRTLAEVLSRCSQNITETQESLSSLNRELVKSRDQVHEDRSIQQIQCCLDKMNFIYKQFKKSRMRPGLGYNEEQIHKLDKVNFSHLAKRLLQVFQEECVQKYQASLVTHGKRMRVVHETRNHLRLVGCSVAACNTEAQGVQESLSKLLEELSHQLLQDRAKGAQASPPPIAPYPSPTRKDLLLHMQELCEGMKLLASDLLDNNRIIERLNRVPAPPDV

Regarding `CC(C)=CCC[C@](C)(O)C1CC[C@]2(C)[C@@H]1[C@H](O)C[C@@H]1[C@@]3(C)CC[C@H](O[C@@H]4O[C@H](CO)[C@@H](O)[C@H](O)[C@H]4O[C@@H]4O[C@H](CO)[C@@H](O)[C@H](O)[C@H]4O)C(C)(C)[C@@H]3CC[C@]12C` (some centres undefined), the IC50 with Murine coronavirus [1] and with Murine coronavirus [2] was 10 µM each time. Further, in series [3], the CC50 is > 50 µM.
As to `CCCc1cnc(NC(=O)[C@@H](C)c2ccc(NC(C)=O)cc2)s1`, the results for the IC50 (in series [4]; with Zika virus [6]) were 31 nM and 90 nM, respectively. Further, in [5], the CC50 was > 10 µM.
With `c1cncc(CN2CCC(n3ncc4c(N5CCOCC5)nc(-c5ccc6[nH]ccc6c5)nc43)CC2)c1`, the IC50 (usually the concentration needed to halve the response being measured) against Aurora kinase B came to 250 nM. In addition, the CC50 in series [7] was > 10 µM. In the series with Zika virus [6], the EC50 (in general, the midpoint of the concentration-response curve) stood at 2280 nM and the IC50 amounted to 2300 nM.
With `O=C1Cc2c([nH]c3ccc([N+](=O)[O-])cc23)-c2ccccc2N1` [ALSTERPAULLONE], the CC50 in “in vitro [8]”, in the series “in vitro [9]” and in “in vitro [10]” was > 1000 nM in each case.
Regarding `NCC(=O)Nc1ccc(-n2nc(C(F)(F)F)cc2-c2ccc3c(ccc4ccccc43)c2)cc1` [AR-12], the IC50 in the series with Zika virus [11] was 2000 nM; in the series with Zika virus [12], 2000 nM; in the series on Zika virus [6], < 2000 nM. For the same compound, the EC50 with Lassa virus came out at 500 nM; with Nipah virus [13], 300 nM; in the series with Ebolavirus [14], 300 nM; with Marburgvirus [15] it was 300 nM; in the series with Ebolavirus [16] it was 300 nM; in the series with Marburgvirus [17] it was 300 nM. This compound also showed an EC50 in the series with Nipah virus [18] of 300 nM. In “in vitro [19]”, the CC50 was > 10 µM.
`O=C(NCCCNc1nc(Nc2cccc(NC(=O)N3CCCC3)c2)ncc1I)c1cccs1` [BX-795] showed an EC50 in the series with Human alphaherpesvirus 1 [20] of 10 µM. The compound further came in with an IC50 in series [21] of 41 nM. The Activity with Human alphaherpesvirus 2 is recorded as >90%. Besides, the CC50 (in [22]; in series [23]; in the series “in vitro [24]”) was 46 µM in each case.
On to `O=c1c(-c2ccc(O)cc2)coc2cc(O)cc(O)c12` [GENISTEIN], for which the Activity in the series with Pichinde virus [25] is 90%; in the series with Human alphaherpesvirus 1 [26], 11%; with Pichinde virus [27], >50%; in the series on Human alphaherpesvirus 1 [28] it was >50%; in series [29], >50%. Moreover, the half-maximal effective concentration (EC50) in the series with Hepatitis B virus came out at 33 µM. For the same compound, the CC50 in the series “in vitro [30]” is > 50 µM.
With `O=C1NC(=O)C(c2c[nH]c3ccccc23)=C1c1c[nH]c2ccccc12` [RO-316233], the CC50 in series [31] and in series [34] was > 8 µM in each case. This compound also showed an IC50 in series [32] of 16 nM. The “log(activity)” value with Influenza A virus [33] and with Influenza B virus was 1 in each case.
As for `C[S+]([O-])c1ccc(-c2nc(-c3ccc(F)cc3)c(-c3ccncc3)[nH]2)cc1` (centres undefined) [SB-203580], the Activity in the series on Human coronavirus 229E worked out at 60%. The CC50 in “in vitro [35]” is > 10 µM.
Regarding `CC(C)(C)c1cc(C=C(C#N)C#N)cc(C(C)(C)C)c1O` [TYRPHOSTIN A9], in the series with Influenza A virus [36], the Activity is 50%. The midpoint of the response in the series with Lyssavirus rabies, the EC50, lay at 900 nM. Also, the “log(activity)” value in series [37] is reported as 3; in series [39] it was 2.3; with Murine coronavirus [40], 2.3; in series [41], 2.3; in series [42] it was 2.3. In series [38], 500 nM corresponded to half-maximal inhibition (IC50). The figures for the CC50 in [43] and in series [44] were > 6 µM and 150 µM, respectively.
